In PMC11866022, “Long-Chain Cyclic Arylguanidines as Multifunctional Serotonin Receptor Ligands with Antiproliferative Activity” (ACS Omega, 2025):
Several values for one entry are separate records, joined by “and”; a condition that tells them apart may be missing. Identical values can stand only once.

Tests used:
[1] = tested on: AsPC-1 pancreatic cancer cells; assay: Antiproliferative activity (MTS), AsPC-1; assay type: cell-based, human; details: Homo sapiens, ASPC1; MTS assay, 72 h
Method: (§1) The chosen group of ligands was further examined for their ability to inhibit proliferation across multiple cancer cell lines related to the CNS system (1321N1, U87MG, LN-229, and U-251). These cell lines were characterized by different mutation profiles, the main one being the variable status of the p53 protein. In detail, U87MG cells have a wild-type p53 protein, while astrocytoma and the rest of GBM cells harbor mutated p53 protein. Additional assays were performed on MCF7 breast cancer and AsPC-1 pancreatic cancer cells. The wide range of tested lines was aimed at screening the anticancer potential of the tested compounds. The first represents one of the most common and the second one of the most aggressive cancers in the world. Comparing the activity of compounds on GBM cells to other types of cancer may reveal their selectivity and usefulness in targeted therapies. The cytotoxicity of the compounds on normal human astrocytes (NHA) and Feline catus astrocyte (PG-4) was determined. Tests on normal lines serve to verify the potential toxicity of the tested compounds on healthy cells. Due to the targeting of CNS tumors, astrocytes were selected as normal lines.
The detailed procedure is presented in previous publications.[53] Briefly, the study utilized various human cancer and normal cell lines, including LN-229 (glioblastoma), MCF7 (breast carcinoma), HepG2 (hepatoma), U-251 (glioblastoma), U87MG (glioblastoma), AsPC-1 (pancreatic adenocarcinoma), and NHA (normal human astrocytes). Cells were cultured in appropriate media, supplemented with FBS, antibiotics, and other supplements, and incubated at 37 °C with 5% CO2. Compounds were dissolved in DMSO, prepared at various concentrations (1–25 μM), and applied to the cells for 72 h. Cell viability was assessed using the MTS assay, and the inhibitory concentration (IC50) was calculated using GraphPad Prism 8.0. Each compound was tested in triplicate across multiple experiments.

5-HT6 = target: T1, 5-HT6 (Homo sapiens, UniProt P50406); assay: Functional cAMP assay (LANCE Ultra), 5-HT6; assay type: cell-based; details: for function at 5-HT6: in words; for Kb: Table 3, unit inferred, cAMP, antagonist mode, 5-CT
T1 construct: expressed in transfected cells; host or cells: HEK293
T1 sequence (P50406 whole entry): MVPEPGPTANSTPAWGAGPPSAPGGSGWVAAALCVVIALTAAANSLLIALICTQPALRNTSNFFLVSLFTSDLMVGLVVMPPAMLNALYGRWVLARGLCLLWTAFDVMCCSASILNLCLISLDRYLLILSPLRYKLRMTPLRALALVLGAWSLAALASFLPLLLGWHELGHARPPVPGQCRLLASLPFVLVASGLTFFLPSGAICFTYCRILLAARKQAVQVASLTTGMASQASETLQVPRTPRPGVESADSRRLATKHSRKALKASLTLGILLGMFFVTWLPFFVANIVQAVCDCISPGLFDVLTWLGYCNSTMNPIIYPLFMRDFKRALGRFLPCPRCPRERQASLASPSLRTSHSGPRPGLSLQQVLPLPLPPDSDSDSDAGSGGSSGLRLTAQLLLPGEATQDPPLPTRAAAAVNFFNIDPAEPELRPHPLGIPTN
Method: Their functional activity was also evaluated by assessing their ability to inhibit agonist-induced cAMP production in HEK293 cells (Table 3). Extended radioisotope tests were aimed at detecting potential affinity for other aminergic receptors, whose role in cancer treatment may be important. Functions were tested for all receptors. The essence of functional tests results from the fact that serotonin stimulates tumor progression. Therefore, the ligand should have the potential to reduce its concentration, i.e., act as an antagonist.[39]
The detailed procedure is presented in previous publications.[53] The functional activity of the compounds was assessed using the LANCE Ultra cAMP detection kit (PerkinElmer). […] For other receptors (5-HT7R, 5-HT1AR, and 5-HT6R), 5-CT was used at 10, 100, and 1000 nM, respectively. Each compound was tested in triplicate across eight concentrations. The inhibitory constant (Kb) for each antagonist was calculated using the Cheng–Prusoff equation.

[2] = tested on: LN-229 glioblastoma cells; assay: Antiproliferative activity (MTS), LN-229; assay type: cell-based, human; details: Homo sapiens, LN-229; MTS assay, 72 h
Method: as §1, with “These” for “The chosen group of ligands was further examined for their ability to inhibit proliferation across multiple cancer cell lines related to the CNS system (1321N1, U87MG, LN-229, and U-251). These”
(§2) The detailed procedure is presented in previous publications.[53] […] Cells were cultured in appropriate media, supplemented with FBS, antibiotics, and other supplements, and incubated at 37 °C with 5% CO2. […] Cell viability was assessed using the MTS assay, and the inhibitory concentration (IC50) was calculated using GraphPad Prism 8.0. Each compound was tested in triplicate across multiple experiments.

1321N1 astrocytoma cells = assay: Antiproliferative activity (MTS), 1321N1; assay type: cell-based, human; details: Homo sapiens, 1321-N1; MTS assay
Method: as §1, with “These” for “The chosen group of ligands was further examined for their ability to inhibit proliferation across multiple cancer cell lines related to the CNS system (1321N1, U87MG, LN-229, and U-251). These”
as §2
Supplementary materials - Biological research […]

[3] = target: T2, human serum albumin (HSA) (Homo sapiens, UniProt P02768); assay: HSA binding by biochromatography (HSA column); assay type: in vitro ADME; details: HSA column
T2 construct: purchased
T2 sequence (P02768 25-609): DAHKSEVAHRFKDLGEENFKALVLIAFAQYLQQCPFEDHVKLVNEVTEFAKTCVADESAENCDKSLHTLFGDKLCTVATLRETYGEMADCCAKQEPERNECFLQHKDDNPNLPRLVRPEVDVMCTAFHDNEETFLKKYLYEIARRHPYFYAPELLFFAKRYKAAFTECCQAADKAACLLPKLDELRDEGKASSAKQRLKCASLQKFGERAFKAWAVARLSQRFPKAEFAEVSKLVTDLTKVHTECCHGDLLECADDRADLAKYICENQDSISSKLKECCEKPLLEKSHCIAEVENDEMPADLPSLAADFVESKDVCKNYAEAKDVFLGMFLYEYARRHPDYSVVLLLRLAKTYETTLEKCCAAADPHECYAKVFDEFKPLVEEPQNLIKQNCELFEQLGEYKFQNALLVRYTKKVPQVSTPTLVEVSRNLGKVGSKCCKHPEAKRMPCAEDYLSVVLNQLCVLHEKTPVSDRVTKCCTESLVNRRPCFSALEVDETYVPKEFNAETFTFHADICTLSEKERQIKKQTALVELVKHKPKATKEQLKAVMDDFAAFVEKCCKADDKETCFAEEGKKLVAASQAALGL
Method: Lipophilicity and affinity for phospholipids for each investigated molecule were assessed. Additionally, selected compounds with the highest biological activities have been characterized by their affinity plasma proteins. All experiments were performed using protocols developed by Valko.[35] These methods facilitated the calculation of chromatographic hydrophobicity indices (CHI) and plasma protein binding percentages (%PPB) in a biochromatographic experiment, with results compared to the reference. A detailed description of the experiments is provided in the Supporting Information (SI), along with the raw data. […] Although high lipophilicity may limit the medical use of the analyzed compounds since they may tend to accumulate excessively in the human body, it is remarkable that several clinically used drugs also have high lipophilicity. […] (Table 5).
The detailed procedure is presented in previous publications.[53] High-performance liquid chromatography (HPLC) analyses were conducted using the Prominence-1 LC-2030C 3D system (Shimadzu) with a DAD detector, employing three different chromatographic columns with specific stationary phases and mobile phases. The analysis was performed at 30 °C with a flow rate of 1.5 mL/min for IAM and C18 columns, and 0.9 mL/min for the Chiralpak column. Calibration standards for the columns were sourced from various suppliers and dissolved in dimethyl sulfoxide. Detection occurred in the UV range (190–300 nm) with a 5 μL injection volume. Each compound was analyzed in triplicate. Retention times for the tested compounds and calibration standards are provided in the Supporting Information (Tables S1 and S2).

U87MG glioblastoma cells = assay: Antiproliferative activity (MTS), U87MG; assay type: cell-based, human; details: Homo sapiens, U-87 MG; MTS assay
Method: as §1, with “These” for “The chosen group of ligands was further examined for their ability to inhibit proliferation across multiple cancer cell lines related to the CNS system (1321N1, U87MG, LN-229, and U-251). These”
as §2
Supplementary materials - Biological research
B) U87MG glioblastoma multiforme line.
and U87MG glioblastoma multiforme line for C) PP 3; D) PP 6; E) PP 8; F) PP 10; G) PP 11; H) PP

## O=S(=O)(c1cccc2ccccc12)N1CCN(CCNC2=Nc3ccccc3CN2)CC1 [PP 6, N-{2-[4-(Naphthalene-1-sulfonyl)piperazin-1-yl]ethyl}-3,4-dihydroquinazolin-2-amine]
[1]
  IC50: > 25 µM
5-HT6
  function at 5-HT6: agonist
[2]
  IC50: > 25 µM
1321N1 astrocytoma cells
  IC50: 20.9 ± 1.4 µM
[3]
  %HSA: 97.2%
  logKHSA: 1.41 and 1.4
U87MG glioblastoma cells
  IC50: > 25 µM

## CC1NC(NCCCCCCNS(=O)(=O)c2cccc3ccccc23)=Nc2ccccc21 (centres unmarked) [PP 10, N-{6-[(4-Methyl-3,4-dihydroquinazolin-2-yl)amino]hexyl}naphthalene-1-sulfonamide]
[1]
  IC50: > 25 µM
5-HT6
  Kb: 0.036 µM
  function at 5-HT6: antagonist
[2]
  IC50: > 25 µM
1321N1 astrocytoma cells
  IC50: 13.4 ± 0.8 µM
[3]
  %HSA: 97.7%
  logKHSA: 1.47 and 1.5
U87MG glioblastoma cells
  IC50: 20.7 ± 1.2 µM

## CC1NC(NCCCCCCNS(=O)(=O)c2c(Cl)ccc3ccccc23)=Nc2ccccc21 (centres unmarked) [PP 13, 2-Chloro-N-{6-[(4-methyl-3,4-dihydroquinazolin-2-yl)amino]hexyl}naphthalene-1-sulfonamide]
[1]
  IC50: 14.6 ± 0.5 µM
5-HT6
  function at 5-HT6: agonist
[2]
  IC50: > 25 µM
1321N1 astrocytoma cells
  IC50: 9.6 ± 1.8 µM
[3]
  %HSA: >99.8%
U87MG glioblastoma cells
  IC50: 13.6 ± 1.1 µM

## O=S(=O)(NCCCCCCNc1ncc2ccccc2n1)c1cccc2ccccc12 [PP 15, N-{6-[(Quinazolin-2-yl)amino]hexyl}naphthalene-1-sulfonamide]
[1]
  IC50: > 25 µM
5-HT6
  Kb: 0.048 µM
  function at 5-HT6: antagonist
[2]
  IC50: > 25 µM
1321N1 astrocytoma cells
  IC50: > 25 µM
[3]
  %HSA: 97.8%
  logKHSA: 1.48 and 1.5
U87MG glioblastoma cells
  IC50: > 25 µM

## O=S1(=O)c2cccc3cccc(c23)N1CCCCCCNC1=Nc2ccccc2CN1 [PP 24, 3-{6-[(3,4-Dihydroquinazolin-2-yl)amino]hexyl}-2λ^6-thia-3-azatricyclo[6.3.1.0^4,^12]dodeca-1(11),4(12),5,7,9-pentaene-2,2-dione]
[1]
  IC50: 12.1 ± 1 µM
[2]
  IC50: 18.4 ± 1.1 µM
1321N1 astrocytoma cells
  IC50: 8.4 ± 1.9 µM
[3]
  %HSA: 98.8%
  logKHSA: 1.65 and 1.6
U87MG glioblastoma cells
  IC50: 13.6 ± 0.6 µM
